# Assay results taken from US11358949B2, “Carbamate and urea compounds as multikinase inhibitors” (ANGEX PHARMACEUTICAL, INC., priority 2017, dated 2022).
# Key:
# AXL = target: T1, AXL (Homo sapiens, UniProt P30530); experiment: HotSpot Kinase Assay, AXL
# T1 sequence (P30530 26-894): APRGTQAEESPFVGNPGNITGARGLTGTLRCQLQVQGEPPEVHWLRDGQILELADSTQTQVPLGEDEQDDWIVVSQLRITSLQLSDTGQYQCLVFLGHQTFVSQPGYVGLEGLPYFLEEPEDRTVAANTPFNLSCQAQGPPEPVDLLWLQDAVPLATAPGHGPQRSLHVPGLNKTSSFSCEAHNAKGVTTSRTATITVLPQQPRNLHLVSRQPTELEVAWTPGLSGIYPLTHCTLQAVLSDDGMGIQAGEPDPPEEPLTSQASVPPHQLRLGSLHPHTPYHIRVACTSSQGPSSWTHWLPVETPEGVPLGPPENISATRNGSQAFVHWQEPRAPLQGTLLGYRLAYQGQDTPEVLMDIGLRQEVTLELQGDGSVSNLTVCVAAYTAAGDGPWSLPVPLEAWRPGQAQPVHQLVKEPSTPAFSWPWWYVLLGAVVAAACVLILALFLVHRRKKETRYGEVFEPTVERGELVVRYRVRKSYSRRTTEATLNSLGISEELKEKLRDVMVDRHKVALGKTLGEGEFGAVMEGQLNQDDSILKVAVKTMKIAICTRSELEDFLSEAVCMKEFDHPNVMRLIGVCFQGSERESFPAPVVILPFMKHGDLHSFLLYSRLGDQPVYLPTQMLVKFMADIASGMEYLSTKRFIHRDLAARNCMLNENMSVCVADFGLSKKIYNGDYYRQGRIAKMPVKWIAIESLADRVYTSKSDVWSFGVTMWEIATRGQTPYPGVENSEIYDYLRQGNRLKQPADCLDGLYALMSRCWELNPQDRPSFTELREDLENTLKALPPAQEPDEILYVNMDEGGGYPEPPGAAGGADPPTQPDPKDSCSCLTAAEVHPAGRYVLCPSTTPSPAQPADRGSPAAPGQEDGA
# Protocol: (§1) Specifically, for each reaction, kinase and substrate were mixed in a pH 7.5 buffer containing 20 mM HEPES, 10 mM MgCl2, 1 mM EGTA [Ethylene glycol-bis(2-aminoethylether)-N,N,N′,N′-tetraacetic acid], 0.02% Brij35, 0.02 mg/mL BSA (Bovine Serum Albumin), 0.1 mM Na3VO4, 2 mM DTT, and 1% DMSO. Compounds were then added to each reaction mixture. After a 20-min incubation, ATP (Sigma-Aldrich) and [γ-^33P] ATP (PerkinElmer) were added at a final total concentration of 100 μM. Reactions were carried out at room temperature for 2 hours and spotted onto P81 ion exchange cellulose chromatography paper (Whatman). […] The percent remaining kinase activity relative to a vehicle-containing (DMSO) kinase reaction was calculated for each kinase/inhibitor pair. […] IC50 values were calculated using Prism 5 (GraphPad).
# FMS = FMS (Homo sapiens, UniProt P07333); experiment: HotSpot Kinase Assay, FMS
# Protocol: as §1
# DDR1 = DDR1 (Homo sapiens, UniProt Q08345); experiment: HotSpot Kinase Assay, DDR1
# Sequence of DDR1 (Q08345 19-913): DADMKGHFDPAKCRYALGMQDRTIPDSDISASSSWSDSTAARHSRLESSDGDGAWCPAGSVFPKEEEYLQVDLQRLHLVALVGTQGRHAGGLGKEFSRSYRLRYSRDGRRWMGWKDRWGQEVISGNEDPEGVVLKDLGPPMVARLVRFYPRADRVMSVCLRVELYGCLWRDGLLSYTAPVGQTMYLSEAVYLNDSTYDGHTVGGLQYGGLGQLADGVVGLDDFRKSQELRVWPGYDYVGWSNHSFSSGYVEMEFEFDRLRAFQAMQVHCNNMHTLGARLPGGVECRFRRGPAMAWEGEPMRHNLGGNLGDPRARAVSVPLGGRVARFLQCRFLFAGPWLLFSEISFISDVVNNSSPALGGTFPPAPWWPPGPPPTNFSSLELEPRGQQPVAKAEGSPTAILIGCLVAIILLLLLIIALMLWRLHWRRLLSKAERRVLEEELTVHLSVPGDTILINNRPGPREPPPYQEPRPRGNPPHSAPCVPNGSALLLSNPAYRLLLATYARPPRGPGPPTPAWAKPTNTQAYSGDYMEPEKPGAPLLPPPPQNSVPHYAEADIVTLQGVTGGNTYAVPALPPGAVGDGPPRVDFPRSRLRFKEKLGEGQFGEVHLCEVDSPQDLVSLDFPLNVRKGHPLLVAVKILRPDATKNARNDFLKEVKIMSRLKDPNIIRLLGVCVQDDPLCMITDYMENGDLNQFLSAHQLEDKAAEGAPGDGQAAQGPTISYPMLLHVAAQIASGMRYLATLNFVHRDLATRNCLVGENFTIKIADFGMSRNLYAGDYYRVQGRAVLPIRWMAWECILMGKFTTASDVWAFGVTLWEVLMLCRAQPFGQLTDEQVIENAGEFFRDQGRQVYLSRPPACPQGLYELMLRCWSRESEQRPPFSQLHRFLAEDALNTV
# c-Kit = c-Kit (Homo sapiens, UniProt P10721); experiment: HotSpot Kinase Assay, c-Kit
# Protocol: as §1
# c-MER = target: T2, c-MER (Homo sapiens, UniProt Q12866); experiment: HotSpot Kinase Assay, c-MER
# T2 sequence (Q12866 21-999): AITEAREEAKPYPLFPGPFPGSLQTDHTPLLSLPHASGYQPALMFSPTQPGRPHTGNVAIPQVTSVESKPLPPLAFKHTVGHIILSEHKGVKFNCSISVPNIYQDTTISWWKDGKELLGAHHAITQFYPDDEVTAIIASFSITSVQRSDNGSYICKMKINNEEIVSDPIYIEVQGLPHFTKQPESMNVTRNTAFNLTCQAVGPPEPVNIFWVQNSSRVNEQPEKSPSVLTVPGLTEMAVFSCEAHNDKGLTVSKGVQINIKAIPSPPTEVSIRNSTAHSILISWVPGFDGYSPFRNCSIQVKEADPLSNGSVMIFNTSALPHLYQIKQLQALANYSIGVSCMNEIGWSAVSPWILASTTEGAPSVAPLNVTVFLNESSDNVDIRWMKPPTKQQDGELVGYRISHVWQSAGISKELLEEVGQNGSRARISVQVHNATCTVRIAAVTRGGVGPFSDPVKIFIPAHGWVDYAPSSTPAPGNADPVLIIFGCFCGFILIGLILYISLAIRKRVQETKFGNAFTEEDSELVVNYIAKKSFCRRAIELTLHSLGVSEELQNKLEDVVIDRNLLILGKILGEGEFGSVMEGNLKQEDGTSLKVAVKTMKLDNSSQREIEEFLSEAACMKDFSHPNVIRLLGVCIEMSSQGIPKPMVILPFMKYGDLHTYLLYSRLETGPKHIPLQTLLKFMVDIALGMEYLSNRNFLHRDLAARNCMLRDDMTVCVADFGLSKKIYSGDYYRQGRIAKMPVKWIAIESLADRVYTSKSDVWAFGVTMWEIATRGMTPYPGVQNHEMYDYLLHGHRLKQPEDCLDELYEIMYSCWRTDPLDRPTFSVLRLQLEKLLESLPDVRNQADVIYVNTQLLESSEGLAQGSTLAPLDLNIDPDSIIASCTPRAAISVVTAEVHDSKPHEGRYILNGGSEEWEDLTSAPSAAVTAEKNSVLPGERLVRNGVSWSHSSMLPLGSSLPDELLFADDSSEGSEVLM
# Protocol: as §1
# c-MET = c-MET (Homo sapiens, UniProt P08581); experiment: HotSpot Kinase Assay, c-MET
# Sequence of c-MET (P08581 25-1390): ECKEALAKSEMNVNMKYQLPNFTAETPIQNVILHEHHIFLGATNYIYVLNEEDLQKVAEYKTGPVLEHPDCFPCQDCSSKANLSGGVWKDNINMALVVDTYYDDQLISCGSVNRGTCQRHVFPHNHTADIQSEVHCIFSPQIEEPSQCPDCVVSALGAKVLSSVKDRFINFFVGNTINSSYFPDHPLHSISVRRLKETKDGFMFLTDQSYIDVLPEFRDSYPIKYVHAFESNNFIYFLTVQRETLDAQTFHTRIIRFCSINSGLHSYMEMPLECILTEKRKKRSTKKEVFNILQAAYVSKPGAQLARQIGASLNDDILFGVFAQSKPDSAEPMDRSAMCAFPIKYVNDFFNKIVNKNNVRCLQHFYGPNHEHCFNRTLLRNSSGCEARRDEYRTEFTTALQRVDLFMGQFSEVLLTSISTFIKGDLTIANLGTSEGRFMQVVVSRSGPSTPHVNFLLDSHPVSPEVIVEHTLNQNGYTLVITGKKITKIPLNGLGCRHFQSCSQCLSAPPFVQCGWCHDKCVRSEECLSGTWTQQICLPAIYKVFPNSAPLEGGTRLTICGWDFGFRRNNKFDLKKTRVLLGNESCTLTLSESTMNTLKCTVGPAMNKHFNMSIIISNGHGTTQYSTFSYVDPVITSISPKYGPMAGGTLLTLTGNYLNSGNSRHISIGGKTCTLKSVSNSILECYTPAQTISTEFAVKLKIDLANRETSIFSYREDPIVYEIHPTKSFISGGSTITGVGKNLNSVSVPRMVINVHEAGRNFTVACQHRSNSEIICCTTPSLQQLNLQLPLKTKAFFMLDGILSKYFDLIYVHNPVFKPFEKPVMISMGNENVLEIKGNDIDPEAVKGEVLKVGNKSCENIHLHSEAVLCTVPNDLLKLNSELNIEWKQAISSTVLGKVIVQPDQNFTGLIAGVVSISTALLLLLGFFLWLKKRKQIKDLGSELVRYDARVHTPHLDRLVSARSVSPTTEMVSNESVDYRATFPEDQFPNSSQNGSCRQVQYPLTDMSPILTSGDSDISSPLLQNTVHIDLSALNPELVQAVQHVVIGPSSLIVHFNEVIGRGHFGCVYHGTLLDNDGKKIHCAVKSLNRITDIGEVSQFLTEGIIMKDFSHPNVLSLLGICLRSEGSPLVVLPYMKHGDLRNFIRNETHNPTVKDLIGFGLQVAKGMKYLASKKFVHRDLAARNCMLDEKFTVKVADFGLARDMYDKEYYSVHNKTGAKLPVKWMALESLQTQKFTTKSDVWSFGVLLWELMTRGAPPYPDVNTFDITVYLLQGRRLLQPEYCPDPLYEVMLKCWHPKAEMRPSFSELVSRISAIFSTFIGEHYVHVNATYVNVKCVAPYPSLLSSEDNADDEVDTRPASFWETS
# Protocol: as §1
# EPHA2 = EPHA2 (Homo sapiens, UniProt P29317); experiment: HotSpot Kinase Assay, EPHA2
# Protocol: as §1
# LOK/STK10 = LOK/STK10 (Homo sapiens, UniProt O94804); experiment: HotSpot Kinase Assay, LOK/STK10
# Sequence of LOK/STK10 (O94804 whole entry): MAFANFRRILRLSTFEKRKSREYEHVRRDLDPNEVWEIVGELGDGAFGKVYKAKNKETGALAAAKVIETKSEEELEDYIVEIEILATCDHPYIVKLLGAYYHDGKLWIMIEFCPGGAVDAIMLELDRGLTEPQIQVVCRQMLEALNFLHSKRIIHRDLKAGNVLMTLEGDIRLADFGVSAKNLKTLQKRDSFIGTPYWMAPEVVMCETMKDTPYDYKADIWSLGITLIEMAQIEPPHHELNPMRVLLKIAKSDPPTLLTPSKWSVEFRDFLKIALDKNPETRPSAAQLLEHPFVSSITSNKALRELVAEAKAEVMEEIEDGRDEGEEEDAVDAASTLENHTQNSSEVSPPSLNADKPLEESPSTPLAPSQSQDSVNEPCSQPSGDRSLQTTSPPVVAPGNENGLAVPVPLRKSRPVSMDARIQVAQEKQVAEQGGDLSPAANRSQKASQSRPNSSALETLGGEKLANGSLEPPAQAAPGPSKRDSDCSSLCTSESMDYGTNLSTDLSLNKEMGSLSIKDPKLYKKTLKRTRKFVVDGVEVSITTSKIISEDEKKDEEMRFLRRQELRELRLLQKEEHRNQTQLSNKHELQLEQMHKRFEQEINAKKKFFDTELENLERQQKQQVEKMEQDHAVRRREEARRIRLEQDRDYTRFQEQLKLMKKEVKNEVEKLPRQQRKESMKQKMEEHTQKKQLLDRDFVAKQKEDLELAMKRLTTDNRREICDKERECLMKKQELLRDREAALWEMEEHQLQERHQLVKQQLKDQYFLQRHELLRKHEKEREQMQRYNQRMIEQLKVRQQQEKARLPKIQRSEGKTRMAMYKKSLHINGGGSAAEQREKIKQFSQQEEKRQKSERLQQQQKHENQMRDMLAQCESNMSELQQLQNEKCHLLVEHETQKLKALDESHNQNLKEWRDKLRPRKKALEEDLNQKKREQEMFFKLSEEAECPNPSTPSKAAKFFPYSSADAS
# TYRO3/SKY = target: T3, TYRO3/SKY (Homo sapiens, UniProt Q06418); experiment: HotSpot Kinase Assay, TYRO3/SKY
# T3 sequence (Q06418 41-890): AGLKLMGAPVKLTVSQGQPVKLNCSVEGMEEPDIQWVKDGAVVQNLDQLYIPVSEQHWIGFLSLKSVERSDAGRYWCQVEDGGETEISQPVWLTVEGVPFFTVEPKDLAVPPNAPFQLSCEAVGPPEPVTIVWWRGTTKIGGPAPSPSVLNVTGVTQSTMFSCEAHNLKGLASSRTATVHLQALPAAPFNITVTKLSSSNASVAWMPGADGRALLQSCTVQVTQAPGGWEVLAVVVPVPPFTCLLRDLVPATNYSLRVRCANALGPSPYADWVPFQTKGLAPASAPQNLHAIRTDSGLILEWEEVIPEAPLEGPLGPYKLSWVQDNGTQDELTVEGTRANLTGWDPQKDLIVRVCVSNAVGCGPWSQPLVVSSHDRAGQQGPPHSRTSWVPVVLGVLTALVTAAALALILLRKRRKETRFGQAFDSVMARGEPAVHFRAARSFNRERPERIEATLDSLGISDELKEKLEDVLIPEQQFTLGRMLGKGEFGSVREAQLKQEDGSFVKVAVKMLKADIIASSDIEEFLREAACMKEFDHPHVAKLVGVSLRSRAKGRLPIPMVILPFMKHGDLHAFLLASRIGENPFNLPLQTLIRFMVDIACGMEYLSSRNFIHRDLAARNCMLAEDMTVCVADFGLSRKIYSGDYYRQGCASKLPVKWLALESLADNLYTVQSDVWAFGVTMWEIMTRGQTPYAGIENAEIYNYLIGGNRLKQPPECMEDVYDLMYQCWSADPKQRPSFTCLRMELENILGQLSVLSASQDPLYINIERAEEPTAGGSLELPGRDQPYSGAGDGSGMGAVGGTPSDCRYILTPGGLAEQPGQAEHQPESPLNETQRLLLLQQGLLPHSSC
# Protocol: as §1
# KDR/VEGFR2 = KDR/VEGFR2 (Homo sapiens, UniProt P35968); experiment: HotSpot Kinase Assay, KDR/VEGFR2
# Sequence of KDR/VEGFR2 (P35968 20-1356): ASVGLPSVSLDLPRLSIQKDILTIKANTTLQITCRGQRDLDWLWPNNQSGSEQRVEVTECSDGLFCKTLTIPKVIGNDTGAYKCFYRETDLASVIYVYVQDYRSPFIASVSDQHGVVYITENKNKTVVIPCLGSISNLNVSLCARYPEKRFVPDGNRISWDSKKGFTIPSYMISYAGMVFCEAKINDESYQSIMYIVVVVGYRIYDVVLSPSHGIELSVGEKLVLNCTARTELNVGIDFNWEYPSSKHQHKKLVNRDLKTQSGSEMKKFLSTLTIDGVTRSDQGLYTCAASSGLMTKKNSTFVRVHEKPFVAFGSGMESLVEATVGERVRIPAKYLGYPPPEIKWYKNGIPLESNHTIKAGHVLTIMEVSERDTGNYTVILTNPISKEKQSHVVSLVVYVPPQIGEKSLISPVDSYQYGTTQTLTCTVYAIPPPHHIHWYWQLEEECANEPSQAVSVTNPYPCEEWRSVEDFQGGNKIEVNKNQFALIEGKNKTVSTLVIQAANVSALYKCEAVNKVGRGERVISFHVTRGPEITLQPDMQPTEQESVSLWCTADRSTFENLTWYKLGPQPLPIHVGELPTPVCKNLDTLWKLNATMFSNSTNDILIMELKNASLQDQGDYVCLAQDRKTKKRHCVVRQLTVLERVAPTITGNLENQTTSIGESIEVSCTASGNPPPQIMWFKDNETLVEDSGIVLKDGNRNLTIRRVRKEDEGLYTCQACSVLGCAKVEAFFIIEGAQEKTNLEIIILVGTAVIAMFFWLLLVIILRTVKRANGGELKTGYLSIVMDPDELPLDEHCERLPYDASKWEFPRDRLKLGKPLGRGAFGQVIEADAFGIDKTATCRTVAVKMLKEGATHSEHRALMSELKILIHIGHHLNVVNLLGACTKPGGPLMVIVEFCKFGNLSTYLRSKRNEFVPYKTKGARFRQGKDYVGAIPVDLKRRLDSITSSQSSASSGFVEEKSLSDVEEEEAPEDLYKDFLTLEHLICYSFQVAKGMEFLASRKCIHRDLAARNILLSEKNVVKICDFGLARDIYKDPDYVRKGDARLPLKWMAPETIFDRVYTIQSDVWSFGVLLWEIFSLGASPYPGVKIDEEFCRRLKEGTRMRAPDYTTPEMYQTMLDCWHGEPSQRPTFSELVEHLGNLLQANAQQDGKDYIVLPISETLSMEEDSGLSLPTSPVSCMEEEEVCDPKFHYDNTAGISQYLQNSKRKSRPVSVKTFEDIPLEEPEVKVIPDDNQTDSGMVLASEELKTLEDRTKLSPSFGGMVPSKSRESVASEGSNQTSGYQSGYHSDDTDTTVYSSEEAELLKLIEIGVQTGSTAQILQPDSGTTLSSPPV
# Protocol: as §1
SMILES,IC50 (AXL) [nM],IC50 (FMS) [nM],IC50 (DDR1) [nM],IC50 (c-Kit) [nM],IC50 (c-MER) [nM],IC50 (c-MET) [nM],IC50 (EPHA2) [nM],IC50 (LOK/STK10) [nM],IC50 (TYRO3/SKY) [nM],IC50 (KDR/VEGFR2) [nM]
"COc1cc2c(Oc3ccc(NC(=O)C4(C(=O)Nc5ccc(F)cc5)CC4)cc3)ccnc2cc1OC(=O)N1CCN(C)C[C@H]1C [Compound 1-11, 4-(4-(1-((4-fluorophenyl)carbamoyl)cyclopropane-1-carboxamido)phenoxy)-6-methoxyquinolin-7-yl (R)-2,4-dimethylpiperazine-1-carboxylate]",< 100,< 100,< 100,< 100,< 100,< 100,100 to 1000,100 to 1000,100 to 1000,> 1000
COc1cc2c(Oc3ccc(NC(=O)C4(C(=O)Nc5ccc(F)cc5)CC4)cc3)ccnc2cc1OC(=O)N1CCN(C)C[C@@H]1C [Compound 1-12],< 100,100 to 1000,< 100,< 100,< 100,< 100,100 to 1000,100 to 1000,100 to 1000,100 to 1000
COc1cc2c(Oc3ccc(NC(=O)C4(C(=O)Nc5ccc(F)cc5)CC4)cc3)ccnc2cc1OC(=O)N1CCC(F)(F)CC1 [Compound 1-13],100 to 1000,> 1000,< 100,100 to 1000,100 to 1000,< 100,> 1000,> 1000,> 1000,> 1000
COc1cc2c(Oc3ccc(NC(=O)C4(C(=O)Nc5ccc(F)cc5)CC4)cc3)ccnc2cc1OC(=O)N1CCCC1 [Compound 1-14],100 to 1000,> 1000,< 100,100 to 1000,100 to 1000,< 100,> 1000,> 1000,> 1000,> 1000
COc1cc2c(Oc3ccc(NC(=O)C4(C(=O)Nc5ccc(F)cc5)CC4)cc3)ccnc2cc1OC(=O)N(C)C [Compound 1-15],100 to 1000,100 to 1000,< 100,100 to 1000,100 to 1000,100 to 1000,> 1000,100 to 1000,> 1000,> 1000
COc1cc2c(Oc3ccc(NC(=O)C4(C(=O)Nc5ccc(F)cc5)CC4)cc3)ccnc2cc1OC(=O)N1Cc2cn(S(C)(=O)=O)nc2C1 [Compound 1-16],100 to 1000,> 1000,< 100,100 to 1000,100 to 1000,< 100,> 1000,> 1000,> 1000,> 1000
COc1cc2c(Oc3ccc(NC(=O)C4(C(=O)Nc5ccc(F)cc5)CC4)cc3)ccnc2cc1OC(=O)N1CCOCC1 [Compound 1-17],100 to 1000,100 to 1000,< 100,< 100,< 100,< 100,100 to 1000,100 to 1000,> 1000,100 to 1000
COc1cc2c(Oc3ccc(NC(=O)C4(C(=O)Nc5ccc(F)cc5)CC4)cc3)ccnc2cc1OC(=O)N1CCN(C)[C@H](C)C1 [Compound 2-2],< 100,< 100,< 100,< 100,< 100,< 100,100 to 1000,100 to 1000,100 to 1000,100 to 1000
COc1cc2c(Oc3ccc(NC(=O)C4(C(=O)Nc5ccc(F)cc5)CC4)cc3)ccnc2cc1OC(=O)N1CCN(C)[C@@H](C)C1 [Compound 2-3],< 100,< 100,< 100,< 100,< 100,< 100,100 to 1000,100 to 1000,100 to 1000,100 to 1000
COc1cc2c(Oc3ccc(NC(=O)C4(C(=O)Nc5ccc(F)cc5)CC4)cc3)ccnc2cc1OC(=O)N1CC[C@@H](O)C1 [Compound 2-4],< 100,100 to 1000,< 100,< 100,< 100,< 100,100 to 1000,100 to 1000,> 1000,> 1000
COc1cc2c(Oc3ccc(NC(=O)C4(C(=O)Nc5ccc(F)cc5)CC4)cc3)ccnc2cc1OC(=O)N1CC[C@H](O)C1 [Compound 2-5],< 100,100 to 1000,< 100,< 100,< 100,< 100,100 to 1000,100 to 1000,> 1000,> 1000
COc1cc2c(Oc3ccc(NC(=O)C4(C(=O)Nc5ccc(F)cc5)CC4)cc3)ccnc2cc1OC(=O)N1C[C@H]2C[C@@H]1CN2C [Compound 2-6],< 100,< 100,< 100,< 100,< 100,< 100,< 100,100 to 1000,100 to 1000,100 to 1000
